Activity calls are given as the source filed them. The rule behind the calls is not given here.
Legend:
[1] = target: Potassium voltage-gated channel subfamily A member 3 (Rattus norvegicus) (UniProt P15384); experiment: Inhibition of [125I]ChTX binding to voltage-gated potassium channel in rat brain synaptic plasma membranes; No effect; assay type: cell membranes; settings: Membrane
[2] = species: Bos taurus; experiment: Inhibition of [125I]ChTX binding to Maxi-K channels in bovine aortic sarcolemmal membranes; assay type: cell membranes; settings: Aorta

Potassium voltage-gated channel subfamily A member 3 (Rattus norvegicus), sequence (P15384 whole entry): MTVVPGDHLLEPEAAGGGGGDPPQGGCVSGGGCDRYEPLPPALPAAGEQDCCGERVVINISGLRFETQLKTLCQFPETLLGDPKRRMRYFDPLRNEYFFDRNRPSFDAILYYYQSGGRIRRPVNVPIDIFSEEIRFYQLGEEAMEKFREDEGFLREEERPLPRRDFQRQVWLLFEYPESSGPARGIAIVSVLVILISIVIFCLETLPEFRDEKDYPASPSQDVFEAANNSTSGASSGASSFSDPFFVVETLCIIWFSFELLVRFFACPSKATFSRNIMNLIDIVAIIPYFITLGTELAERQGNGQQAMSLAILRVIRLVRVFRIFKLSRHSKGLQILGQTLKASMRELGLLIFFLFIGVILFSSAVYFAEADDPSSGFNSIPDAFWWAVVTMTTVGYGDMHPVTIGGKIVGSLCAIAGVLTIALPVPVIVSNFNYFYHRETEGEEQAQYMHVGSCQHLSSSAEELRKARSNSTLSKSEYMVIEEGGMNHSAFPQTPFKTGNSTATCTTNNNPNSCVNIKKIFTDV

## CC1=CC[C@@]2(C)C[C@H](O)[C@@](O)(C(C)C)[C@@H]2CC1
[1]
  inhibition: inactive
[2]
  inhibition: 200 nM

Source: ChEMBL document CHEMBL1128868, “A carotane sesquiterpene as a potent modulator of the Maxi-K channel from Arthrinium phaesospermum” (Bioorg Med Chem Lett, 1995)
